These results are taken from US4760085A, “Use of D,L-and D-carazolol as anti-glaucoma agent” (Boehringer Mannheim GmbH, priority 1983, dated 1988).

Where two headings read alike, the source gives them in different places.

Data set [1] deals with pressure of the eye in glaucoma patients. Particulars: glaucoma patients (Krieglstein 1978); cited from earlier work.
The subject of data set [2] is internal eye pressure in glaucoma patients. Description: Lowering of internal eye pressure in humans (glaucoma patients), eye drops. The class given is in vivo. On the procedure: (§1) For this purpose, patients were treated once per day with D,L-carazolol eye drops.
The subject of data set [3] is glaucoma patients. Briefly: Compatibility / side effects of eye drops in humans. The format is in vivo. On the procedure:
as §1

Data set [4] concerns internal pressure of the eye. Description: Experiments on lowering of the internal pressure of the eye (species not stated). The class given is in vivo.
In data set [5] the test system is β-blocking action. Particulars: Circ. Res., 49, 326-336/1981; cited from earlier work.
In data set [6] the test system is intraocular pressure in water loaded rabbits. Briefly: Intraocular pressure reduction in water loaded conscious rabbits. Particulars: one drop of 0.05% solution; for Reduction of the intraocular pressure in water loaded rabbits after administration of 0.05% solution: conscious rabbits, water loading. The format is in vivo. On the procedure:
For measurement of an intraocular pressure-reducing effect the intraocular pressure in some test animals (rabbits) were increased by means of water loading (Method: Th. McDonalds et al in Arch. Ophtal. 82, p. 381, 1969). Thereafter the influence of one drop of a 0,05% solution of D,L-carazolol respectively the enantiomeres thereof were measured.

In data set [7] the test system is tachycardic effect of 1 mcg/kg i.v. Isoprenaline (β-blocking). Description: β-blocking activity: inhibition of isoprenaline-induced tachycardia in conscious rabbits. The format is in vivo. Particulars: for ED50: Oryctolagus cuniculus, iv, read-out: β-blocking activity ID50 (inhibition dose 50% of the tachycardic effect of 1 mcg/kg i.v. Isoprenaline). On the procedure:
D,L-Carazolol, D-carazolol and L-carazolol were tested in respect to a β-blocking and intraocular pressure-reducing activity. The β-blocking activity was measured by means of a tachycardic effect caused by 1 μg/kg i.v. isoprenaline (Dr. Bartsch et al in Drug Research 27 (I), 5, p. 1022 et seq (1977).

Data set [8] is described as follows: Side effects observed in the experiments (species not stated). The class given is in vivo.
Data set [9] deals with β-blocking action. Particulars: humans and animals; cited from earlier work.
For data set [10], the system named is glaucoma patients. Particulars: cited from earlier work.
[11] abbreviates: D-carazolol, concentration not given.
The mark [12] stands for this setting: 0.01% solution of D,L-carazolol.

Take `CC(C)NCC(O)COc1cccc2ccccc12` (stereo not shown) [propranolol]: in data set [1], the “reduction of the pressure of the eye” value is “can reduce the pressure of the eye in glaucoma patients”.
Take `CC(C)NC[C@@H](O)COc1cccc2[nH]c3ccccc3c12` [D-Carazolol, R(+)-1-carbazolyl-(4)-oxy-3-isopropylaminopropan-2-ol]: the “lowering of internal eye pressure” value in [2] (D-carazolol and salts thereof) was “significant lowering of the internal eye pressure”. In addition, the side effects entry in data set [3] (D-carazolol and salts thereof) is given as “in no case were side effects observed”. The “lowering of the internal pressure of the eye” value in data set [4] (setting [11]) is listed as “significant lowering of the internal pressure of the eye”. Further, the β-blocking action entry in [5] was “no such action was ascertained”. Besides, the “Reduction of the intraocular pressure in water loaded rabbits after administration of 0.05% solution” value (shortened to “Reduction … of 0.05% solution”) in data set [6] worked out at 21%. The “intraocular pressure-reducing activity (in words)” value in [6] (water loaded rabbits) was “most effective compound”. For the same compound, the ED50 in [7] came out at 222 µg/kg. The “systemic side effects typical of β-blockers” value in [8] (setting [11]) is listed as “without the occurrence of systemic side effects which are typical of β-blockers”.
With `CC(C)NCC(O)COc1cccc2[nH]c3ccccc3c12` (racemic) [D,L-Carazolol, (D,L)-1-carbazolyl-(4)-oxy-3-isopropylaminopropan-2-ol], the “lowering of internal eye pressure” value in data set [2] (glaucoma patients, D,L-carazolol eye drops once per day, 0.005 to 0.03%) is reported as “significantly lower the internal eye pressure in glaucoma patients”. Besides, the “known side effects (anaesthetised feeling in the eye or head region, strong burning sensation)” value in data set [3] (humans, 0.01% solution) is reported as “did not give rise to any of the known side effects”. In data set [3] (humans, eye drops), the compatibility entry is “good compatibility”. Besides, in data set [4] (setting [12]), the “lowering of the inner pressure of the eye” value was “significant lowering of the inner pressure of the eye”. For the same compound, the β-blocking action result in data set [9] is reported as “outstanding β-blocking action”. Moreover, in data set [6], the “Reduction … of 0.05% solution” value stood at 12%. In data set [7], the ED50 was determined as 3 µg/kg. For the same compound, the “β-blocking activity (in words)” value in [7] (isoprenaline tachycardia) is on record as “good β-blocking activity”. For the same compound, the undesired side effects result in data set [8] (setting [12]) was “without any undesired side effects being observed”.
Turning to `CC(C)NC[C@H](O)COc1cccc2[nH]c3ccccc3c12` [L-Carazolol], the “Reduction … of 0.05% solution” value in [6] came to 5%. For the same compound, the ED50 in data set [7] amounted to 1.6 µg/kg.
As to `CC(C)(C)NC[C@H](O)COc1nsnc1N1CCOCC1` [Timolol, S-(-)-1-(tert.-butylamino)-3-[(4-morpholino-1,2,5-thiadiazol-3-yl)-oxy]-propan-2-ol], the “rare but very serious incidents as a result of the β-blockade” value in [10] (after administration of timolol (Vonwil et al. 1981)) is “asthmatic attacks, heart rhythm disturbances and even some fatal cases”. For the same compound, the “side effects in glaucoma therapy” value in data set [10] (commercially available 0.5% solution, especially long-term therapy (Nielsen 1981)) is “significant lowering of the blood pressure and the development of dry eyes”.
